Columns and labels:
CYP2C8 = biological target: T1, CYP2C8 (Homo sapiens, UniProt P10632); test: CYP2C8 direct inhibition; assay type: in vitro ADME; conditions: highest concentration evaluated (10 μM)
T1 sequence (P10632 1-490): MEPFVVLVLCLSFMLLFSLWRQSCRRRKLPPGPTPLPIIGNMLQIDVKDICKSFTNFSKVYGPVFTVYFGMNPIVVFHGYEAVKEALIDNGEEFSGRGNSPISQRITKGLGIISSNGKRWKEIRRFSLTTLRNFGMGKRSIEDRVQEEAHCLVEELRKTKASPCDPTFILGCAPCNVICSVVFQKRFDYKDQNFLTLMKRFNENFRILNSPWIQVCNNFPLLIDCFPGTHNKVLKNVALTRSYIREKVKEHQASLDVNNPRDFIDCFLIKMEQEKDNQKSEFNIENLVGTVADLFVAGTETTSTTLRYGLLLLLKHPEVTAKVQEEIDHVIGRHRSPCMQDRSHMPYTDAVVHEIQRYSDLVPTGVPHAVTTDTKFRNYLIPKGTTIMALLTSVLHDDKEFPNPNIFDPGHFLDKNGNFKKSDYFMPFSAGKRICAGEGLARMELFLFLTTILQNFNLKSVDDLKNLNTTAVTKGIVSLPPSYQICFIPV

in vivo = conditions: female, rat, po
CYP3A4 = CYP3A4 induction in vitro (activity, mRNA); assay type: in vitro ADME
MCF7 xenograft tumors = MCF7 xenograft tumors in mice, once daily oral administration; assay type: in vivo; conditions: once daily oral 30 mg/kg/day (lowest dose level evaluated)
CYP1A2 = CYP1A2 induction in hepatocytes (activity, mRNA); assay type: in vitro ADME; conditions: for CYP1A2 mRNA expression increase: 1 of 3 hepatocyte donors
CYP2B6 = biological target: T2, CYP2B6 (Homo sapiens, UniProt P20813)
T2 sequence (P20813 1-491): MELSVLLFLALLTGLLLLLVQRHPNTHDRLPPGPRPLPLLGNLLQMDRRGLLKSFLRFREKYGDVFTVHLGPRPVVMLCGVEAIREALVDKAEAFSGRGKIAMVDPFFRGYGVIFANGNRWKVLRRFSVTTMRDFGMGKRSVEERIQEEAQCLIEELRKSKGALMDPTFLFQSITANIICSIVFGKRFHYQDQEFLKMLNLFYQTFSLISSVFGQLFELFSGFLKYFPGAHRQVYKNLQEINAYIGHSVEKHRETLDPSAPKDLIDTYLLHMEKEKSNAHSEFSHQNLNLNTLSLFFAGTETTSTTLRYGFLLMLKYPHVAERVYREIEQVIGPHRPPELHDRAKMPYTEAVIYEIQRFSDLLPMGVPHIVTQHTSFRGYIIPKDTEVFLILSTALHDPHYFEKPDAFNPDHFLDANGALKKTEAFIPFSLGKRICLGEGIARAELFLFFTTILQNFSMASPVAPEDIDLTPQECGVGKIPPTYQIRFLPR

[1] = rat, in vivo, po

SMILES: O=C1CC[C@H](N2Cc3cc(N4CCN(CC5CCN(c6ccc([C@@H]7c8ccc(O)cc8OC[C@@H]7c7ccccc7)cc6F)CC5)CC4)ccc3C2=O)C(=O)N1 [compound (1-g), (S)-3-(5-(4-((1-(2-fluoro-4-((3S,4R)-7-hydroxy-3-phenylchroman-4-yl)phenyl)piperidin-4-yl)methyl)piperazin-1-yl)-1-oxoisoindolin-2-yl)piperidine-2,6-dione]
- CYP2C8 direct inhibition (CYP2C8): did not directly inhibit
- AUC (in vivo; AUC in the evaluated tissues (compared with plasma)): > 2800 ng·h/mL
- AUC (in vivo; plasma AUC): 2800 ng·h/mL
- CYP3A4 induction (activity or mRNA expression) (CYP3A4): did not significantly induce activity or mRNA expression
- effect on MCF7 xenograft tumors (MCF7 xenograft tumors): achieved tumor regression
- CYP1A2 mRNA expression increase (CYP1A2; 0.5 μM (372 ng/mL)): 1.4 fold
- CYP1A2 mRNA expression increase (CYP1A2; 2 μM): 3.1 fold
- CYP1A2 enzyme activity induction (CYP1A2; hepatocytes): no induction of CYP1A2 enzyme activity was observed
- CYP2B6 time-dependent inhibition (CYP2B6): without showing time-dependent inhibition
- presence in mammary gland tissue, ovaries and uterus [1]: quantifiable in mammary gland tissue
- tissue exposure [1]: highest exposures were observed in the large and small intestine with limited exposure to the brain
- severely toxic dose in 10% of animals (STD10) (female, rat, in vivo, po, 28 day): 270 mg/kg/day
- off-target adverse toxicities (rat, in vivo): no off-target adverse toxicities observed
- key organ effects (rats, 28-day GLP): considered on target pharmacological effects

Source: patent US20250381179A1, “CHROMAN-BASED COMPOUNDS FOR TREATING CANCER” (priority 2024, published 2025)
